Where two headings read alike, the source gives them in different places.
How the values were obtained:
[1] = Effect of contaminant zinc on ^177Lu-B labeling with PDTC in reaction buffer (Example 20); assay type: physicochemical; settings: Sample 2: COMPOUND B with ^177Lu in the presence of zinc and PDTC (COMPOUND B:^177Lu:Zinc 3:1:3)
Protocol: The injection volume was 10 μL.
At times, ^177LuCl3 isotope solutions are contaminated with non-radioactive metals that can interfere with radiolabeling. These metals (which may include, for example Zn, Cu, Ca and Fe among others), can compete with ^177Lu for the chelator, thus lowering reaction yields by consuming ligand so it is unavailable for chelation to ^177Lu.
A 10-mg/mL solution of 1pyrrolidine dithiocarbamic acid ammonium salt was prepared by dissolving it in sodium acetate buffer (0.2 M, pH 4.8). To a lead-shielded, 300-μL sample vial was added 86.5 μL of the NaOAc buffer solution, 13.7 mCi ^177LuCl3, 0.6525 μg zinc (6.52 μL of a 100-μg/mL zinc plasma standard solution) and 15 μg COMPOUND B (dissolved in water). This was labeled as ‘Sample 1’. To another lead-shielded, 300-μL sample vial was added 86.5 μL of the […] 1-pyrrolidine dithiocarbamic acid ammonium salt/NaOAc buffer solution, 13.8 mCi ^177LuCl3, 0.6525 μg zinc and 15 μg COMPOUND B. This was labeled as ‘Sample 2’. The concentration of COMPOUND B in each sample was 150 μg/mL and the molar ratio of COMPOUND B:^177Lu:Zinc for each sample was 3:1:3. The samples were heated to 100° C. for 5 min, and then cooled for 5 min in an ambient-temperature water bath. To each sample, 10 μL of 2% Na2EDTA.2H2O in water was added, and then each was analyzed by HPLC, using HPLC Method 5.

[2] = assay type: physicochemical
Protocol: The injection volume was 20 μL.
Solutions of 1-pyrrolidine dithiocarbamic acid ammonium salt (PDTC) were prepared at concentrations of 20-, 10-, 5- and 1 mg/mL by dissolving it in a sodium acetate (NaOAc) buffer solution (0.2 M, pH 4.8). To lead-shielded 300-μL sample vials were added, individually, 50-μL aliquots of the PDTC-NaOAc butter solutions, including an aliquot of the NaOAc buffer only, to serve as a control sample. To each buffer aliquot was added 9.95 mCi ^177LuCl3 (avg) and 17.2 μg COMPOUND A (dissolved in water). The molar ratio of COMPOUND A:Lu (total Lu) for each sample was 3:1. During the reaction, in each sample, the concentration of COMPOUND A was 287-μg/mL and the activity concentration was 167-mCi/mL. The samples wore heated to 100° C. for 5 minutes, then cooled for 5 minutes in an ambient-temperature water bath. To each sample, 10 μL of 2% EDTA in water was added, and then each was analyzed by HPLC (Method 3) over 48 hours. At t=0, the radioactivity concentration was 143 mCi/mL.

[3] = assay type: physicochemical; remark: listed apart in the source
[4] = assay type: physicochemical; remark: listed apart in the source
Protocol: The ratio of COMPOUND A to Lutetium was 3:1 for all samples. The reaction mixtures were heated, cooled, treated with Na2EDTA.2H2O and analyzed by HPLC as described in Example 13, and then stored at room temperature for 24 hours, at which time all samples were analyzed again.

[5] = ^177Lu-A prepared with PDTC 1 mg/mL (0.05 mg)
[6] = ^177Lu-A prepared with PDTC 5 mg/mL (0.25 mg)
[7] = ^177Lu-A prepared with PDTC 10 mg/mL (0.5 mg)
[8] = ^177Lu-A prepared with PDTC 20 mg/mL (1 mg)

N.S=C(S)N1CCCC1 [PDTC, 1-pyrrolidine dithiocarbamic acid ammonium salt]
99.9%: RCP % t = 24 h ([4]; ^177Lu-A prepared in presence of stabilizer 5 mg/mL, room temperature, 24 h)
100%: RCP [1] | RCP (%) 0-h ([2]; ^177Lu-A 143 mCi/mL at t=0, prepared with PDTC 1 mg/mL (0.05 mg)) | RCP (%) 0-h ([2]; ^177Lu-A 143 mCi/mL at t=0, prepared with PDTC 5 mg/mL (0.25 mg)) | RCP (%) 0-h ([2]; ^177Lu-A 143 mCi/mL at t=0, prepared with PDTC 10 mg/mL (0.5 mg)) | RCP (%) 0-h ([2]; ^177Lu-A 143 mCi/mL at t=0, prepared with PDTC 20 mg/mL (1 mg)) | RCP (%) 3-h [2, 5] | RCP (%) 3-h [2, 6] | RCP (%) 6-h [2, 6] | RCP (%) 12-h [2, 6] | RCP (%) 3-h [2, 7] | RCP (%) 6-h [2, 7] | RCP (%) 12-h [2, 7] | RCP (%) 24-h [2, 7] | RCP (%) 48-h [2, 7] | RCP (%) 3-h [2, 8] | RCP (%) 6-h [2, 8] | RCP (%) 12-h [2, 8] | RCP (%) 24-h [2, 8] | RCP (%) 48-h [2, 8] | RCP for up to 48 hours ([2]; ^177Lu-A, PDTC at 20 mg/mL) | RCP % t = 0 h ([4]; ^177Lu-A (4.65-5.64 mCi) prepared in presence of stabilizer 5 mg/mL, 0 h)
1%: RCP Drop over 24 hr ([3]; ^177Lu-B formulated with 5 mg stabilizing compound, 0 to 24 h)
94.0%: (% RCP) 24-h ([3]; ^177Lu-B (44-53 mCi) formulated with 5 mg stabilizing compound, 24 h)
17.2%: RCP (%) 6-h [2, 5]
94.7%: (% RCP) 6-h ([3]; ^177Lu-B (44-53 mCi) formulated with 5 mg stabilizing compound, 6 h)
95.0%: (% RCP) 0-h ([3]; ^177Lu-B (44-53 mCi) formulated with 5 mg stabilizing compound, diluted to ~2 mL, ~6° C. above room temperature, 0 h)
0%: RCP (%) 12-h [2, 5] | RCP (%) 24-h [2, 5] | RCP (%) 24-h [2, 6]
